Test results as given in patent publication US20020183258A1, “Process of inhibiting cell death in injured cartilage” (The Scripps Research Institute, priority 2001, published 2002).
Entries after “also recorded” stand apart in the source; their conditions may differ. Where a SMILES comes first, the peptide text is derived from it. The star is where a group is joined. Cbz = O=C(OCc1ccccc1)*; CH2F = FC*

Columns and labels:
[1] = system: bovine cartilage explants; experiment: Load-induced chondrocyte apoptosis (TUNEL) in mechanically injured bovine cartilage explants; assay type: cell-based; conditions: for Mean (±SD) apoptosis rates, Loaded + Agent: bovine femoral condyle cartilage, loaded at 23 MPa, rate = percentage of TUNEL positive cells, n = 8 to 10
Text: Macroscopically normal weight bearing portions of freshly slaughtered skeletally mature bovine femoral condyles were selected from animals between 2 and 6 years of age (Animal Technologies, Austin, Tex.). Only joints without visible signs of degeneration or aging were selected. Using sterile techniques, fall thickness cartilage was separated from underlying subchondral bone with a scalpel and 5 mm diameter cylindrical explants, ranging from 1 to 1.8 mm in height, cored out using a dermal punch (Acuderm, Inc., Ft. Lauderdale, Fla.). Explants taken from adjacent sites were used as matched controls for each group in each experiment to minimize variation in cartilage response due to differences in thickness and location within the joint. Each explant was weighed and allowed to stabilize at 37° C. and 5% CO2 for 48 hours in 1 ml of Dulbecco's modified Eagle's medium (DMEM) supplemented with 10% fetal bovine serum (FBS), L-glutamine, antibiotics and 50 μg/ml ascorbic acid.
Full thickness bovine cartilage explants, 5 mm in diameter, were subjected to a single static mechanical load of 7, 14 or 23 MPa for 500 msec. This model simulates traumatic cartilage injury and the loads were similar in magnitude to those generated during traumatic joint injury. Glycosaminoglycan (GAG) release and percent apoptotic cells were measured. The effect of a pan-caspase inhibitor, z-VAD.fmk [benzyloxycarbonyl-Val-Ala-Asp (OMe) fluoromethylketone] in preventing chondrocyte apoptosis was determined. z-VAD.fmk is a fluoromethylketone irreversible inhibitor of a broad spectrum of caspases. […] The percentage of apoptotic chondrocytes was related to load intensity and correlated with the level of GAG release from cartilage. […] This identifies a new approach to limit traumatic cartilage injury and the subsequent development of secondary osteoarthritis.
A model to simulate acute joint injury was used in this study based on injury models reported by Repo and Finlay, and Jeffrey et al. (Repo, et al. (1977) J. Bone Joint Surg. Am. 59A, 1068-1076, Jeffrey, et al. (1995) Arch. Biochem. Biophys. 322, 87-96). Although these reported models impacted cartilage using drop towers, a more controlled method was chosen for applying and maintaining stress or strain as follows. An Instron 8511 servohydraulic testing machine (Instron Corporation, Boston, Mass.) was used to mechanically load the cartilage explants. Explants were transported from the incubator to the Instron machine in sealed cell culture dishes. The explant was centralized on a stainless steel loading platform and a radially unconfined compressive load was applied through an impermeable stainless steel platen. A small preload (0.1 MPa) was applied for 2 minutes, followed by a single 500 msec trapezoidal loading waveform at the selected stress. The stress rose from 0.1 MPa to the chosen stress level in 100 msec and was maintained for 500 msec. Three stress levels were chosen to represent acute joint injury. 7 MPa has been reported to be the upper limit of physiologic stress developed during activities of daily living (von Eisenhart, et al. (1999) J. Orthop. Res. 17, 532-539). 23 MPa is the stress above which the underlying bone has been reported to fracture (Haut (1989) J. Orthop. Res. 7, 272-280). Control explants were placed in the loading apparatus but not loaded. Both control and loaded explants were re-cultured in fresh culture media immediately after loading. Stress and strain data were recorded during the test. […]

[2] = system: human cartilage explants; experiment: Load-induced chondrocyte apoptosis (TUNEL) in mechanically injured human cartilage explants; assay type: cell-based; conditions: for Mean (±SD) apoptosis rates, Loaded + Agent: human cartilage (femoral condyles and tibial plateaus), n = 8 to 10
Text: Macroscopically normal tibial and femoral articular surfaces were selected from human cadaver donors between 18 and 45 years of age. Using sterile techniques, full thickness cartilage was separated from underlying subchondral bone with a scalpel. 5 mm diameter cylindrical explants, ranging from 2 to 2.8 mm in thickness, cored out using a dermal punch (Acuderm, Inc., Ft. Lauderdale, Fla.). Explants taken from adjacent sites were used as matched controls for each group in each experiment to minimize variation in cartilage response due to differences in thickness and location within the joint. Each explant was weighed and allowed to stabilize at 37° C. and 5% CO2 for 48 hours in Dulbecco's modified Eagle's medium (DMEM) supplemented with 5% fetal bovine serum (FBS), L-glutamine, antibiotics and […] ascorbic acid.
An Instron 8511 servohydraulic testing machine (Instron Corporation, Boston, Mass.) was used to mechanically load the cartilage explants. Explants were transported from the incubator to the Instron machine in sealed cell culture dishes. The total time duration of loading for a single experiment varied from approximately 1 to 2 hours depending on the number of samples. […] Stress and strain data were recorded during the test.
To determine whether caspase inhibitors could prevent apoptosis, explants were cultured in […] z-VAD.fmk (a broad spectrum caspase inhibitor) immediately after injury (30% strain level). Percentage apoptosis was measured at 96 hours post-injury in three groups (control, loaded, and loaded with z-VAD.fmk) with ten explants each in two separate experiments.
Explants loaded as described above were fixed in 10% buffered formalin. […] This was detected by immunohistochemical staining with M30 (Cytodeath, Boehringer Mannheim, Eugene, Oreg.), a monoclonal antibody that recognizes the neo-epitope exposed in early apoptosis.
In an additional study the apoptosis response of human articular cartilage to mechanical stress was examined. […] GAG release and percentage of cells undergoing apoptosis were measured at 96 hours after injury. […]

[3] = system: bovine cartilage explants; experiment: Glycosaminoglycan (GAG) release assay (dimethylene blue) in injured bovine cartilage explants; assay type: cell-based; conditions: loaded, z-VAD.fmk 100 μM, 48 hours
Method: Glycosaminoglycan release assay. To estimate GAG depletion and release, the concentration of sulfated glycosaminoglycans was measured using 1,9-Dimethylene Blue (DMMB) as a monitor of spectrophotometric changes which occur during the formation of the sulfated GAG dye complex (Fardale, et al. (1986) Biochim. Biophys. Acts. 883, 173-177, Goldberg, et al. (1993) Agents Actions 39 Spec No, C163-C165). For GAG content measurement, samples were digested in papain and collagenase and the concentration of sulfated GAG measured using DMMB. To generate a standard curve, chondroitin-6-sulfate (Sigma, St. Louis, Mo.) was used at concentrations between 1 and 200 μg/ml. GAG released in media was normalized to the pooled mean GAG content of Control (uninjured) cartilage explants and expressed as a percentage of total GAG content.
To determine whether apoptosis could be prevented by caspase inhibition, 12 explants were loaded at 23 MPa (High Load) and cultured for 48 hours. […] Six more explants were used as non-loaded controls. Percent apoptosis and GAG release in media was measured as described above.
Release of sulfated glycosaminoglycans (GAG) was analyzed as a measure of the extent of damage sustained by the explant. […] GAG depletion was assessed by dimethylene blue binding assays of the culture supernatants and this correlated with the reduced of safranin O staining of the cartilage sections.

[4] = system: rabbits with ligament transection; experiment: Intraarticular injection of caspase inhibitor in rabbits with anterior cruciate ligament transection (ACLT); assay type: in vivo, New Zealand White rabbits
Method: A pilot study was performed to assess feasibility and efficacy of caspase inhibition in vivo. Eight New Zealand White rabbits were divided into anterior cruciate ligament transection (ACLT) and ACLT+caspase inhibitor (CI) groups. Both groups underwent bilateral ACLT. The ACLT+CI group was treated with intra-articular injections of 25 μg of z-VAD.fmk three times per week for six weeks while the control group received saline injections. Rabbits were euthanised at six weeks and femoral and tibial articular cartilage evaluated by India ink staining and histologic Mankin grading after Safranin-O stain.
Histologically, more knees from the ACLT group had higher Mankin scores. 87% (⅞) ACLT knees had grades 5 or higher, while 50% ( 4/8) ACLT+CI knees were graded 5 or higher. The India ink stained femoral condyles were photographed and digital images were used to quantify the surface areas of the lesions.

Compound: C[C@@H]1C[C@H]2[C@@H]3CCC4=CC(=O)C=C[C@]4(C)[C@@]3(F)[C@@H](O)C[C@]2(C)[C@@]1(O)C(=O)CO [Dexameth.]
- Mean (±SD) apoptosis rates, Loaded + Agent [1]: 47 (±11.2)

Compound: COC(=O)CC(NC(=O)C(C)NC(=O)C(NC(=O)OCc1ccccc1)C(C)C)C(=O)CF (stereo not drawn) [z-VAD.fmk, benzyloxycarbonyl-Val-Ala-Asp (OMe) fluoromethylketone] (Cbz-Val-Ala-Asp(OMe)-CH2F; configuration not given here)
- reduction in the apoptosis rate ([1]; bovine explants, high and intermediate load groups, vs loaded without agent): > 50%
- effect on chondrocyte apoptosis after mechanical injury ([1]; bovine explants, single static load, 500 msec): reduced chondrocyte apoptosis after mechanical injury
- Mean (±SD) apoptosis rates, Loaded + Agent [1]: 31 (±13.9)
- Mean (±SD) apoptosis rates, Loaded + Agent ([2]; loaded at 23 MPa (footnote *)): 34 (±10.2)*
- reduction in apoptosis rates ([2]; human explants, 30% strain, cultured in 100 mM z-VAD.fmk after injury, 96 hours post-injury, p<0.05): 50%
- effect on GAG release / GAG depletion after mechanical injury [3]: reduction in GAG release; also recorded: normalization of the GAG depletion
- reduction of the size (surface area) of the cartilage lesions ([4]; rabbit ACLT, India ink stained femoral condyles, digital images, six weeks, 25 μg intra-articular three times per week): ~80%
- India ink grade of cartilage lesions ([4]; rabbit ACLT, six weeks, 25 μg intra-articular three times per week (ACLT saline: grade III to IVa)): ranged from II (minimum fibrillation), with only one rabbit (two knees) having a Grade III to IVa lesion
- area of cartilage lesions under India ink examination ([4]; rabbit ACLT, six weeks, vs ACLT saline group): lesions that were smaller in area
- knees with histologic Mankin grades 5 or higher ([4]; rabbit bilateral ACLT, 25 μg intra-articular three times per week for six weeks, 4/8 knees (ACLT saline 87%)): 50%

Compound: IGF-1: agent tested for pharmacologic modulation of apoptosis after cartilage injury in vitro
- Mean (±SD) apoptosis rates, Loaded + Agent [1]: 42 (±10.9)
- Mean (±SD) apoptosis rates, Loaded + Agent ([2]; loaded at 30% strain): 10 (±6.2)
